The experiment has as its system Rat Bleomycin Model. The experiment in a line: Rat bleomycin model of lung fibrosis: histological analysis of interstitial collagen deposition (Picrosirius red stain). The experiment is classed as in vivo. Conditions: co-administration with bleomycin, relative area and intensity of interstitial collagen (manual score), FIG. 1. The method, then:
Appl. Pharmacol. (1992)116:30-7). Another well-established model for lung fibrosis is the rat bleomycin model published by E. White et al, Am J Respir Crit Care Med. 2006, 173: 112-121.
A histological analysis of levels of collagen deposition in the lung interstitium, as determined using Picrosirius red stain, for bleomycin alone as well as combinations of bleomycin and several other compounds, including AMN107, was performed. As depicted in FIG. 1 showing the levels of interstitial collagen in lung tissue as determined histologically using Picrosirius red stain (statistical analysis: Man Whitney rank sum test), co-administration of AMN107 can reduce the effect of bleomycin by more than 50%.

We go through one molecule from patent US20130267549A1, “Use of Pyrimidylaminobenzamide Derivatives for the Treatment of Fibrosis” (NOVARTIS AG, priority 2009, published 2013).

As to `Cc1cn(-c2cc(NC(=O)c3ccc(C)c(Nc4nccc(-c5cccnc5)n4)c3)cc(C(F)(F)F)c2)cn1` [AMN107, 4-methyl-3-[[4-(3-pyridinyl)-2-pyrimidinyl]amino]-N-[5-(4-methyl-1H-imidazol-1-yl)-3-(trifluoromethyl)phenyl]benzamide], the “reduction of the effect of bleomycin on levels of interstitial collagen in lung tissue” value is reported as “more than 50%”.
